This test relates to Staphylococcus aureus. Nature of the test: Antibacterial activity against methicillin-resistant Staphylococcus aureus assessed as bacterial killing at 16 ug/ml by serial dilution method after 24 hrs. In kind it is functional.

With `CN[C@H](CC(C)C)C(=O)N[C@H]1C(=O)N[C@@H](CC(N)=O)C(=O)N[C@H]2C(=O)N[C@H]3C(=O)N[C@H](C(=O)N[C@H](C(=O)O)c4cc(O)cc(O)c4-c4cc3ccc4O)[C@H](O)c3ccc(c(Cl)c3)Oc3cc2cc(c3O[C@@H]2O[C@H](CO)[C@@H](O)[C@H](O)[C@H]2O[C@H]2C[C@](C)(N)[C@H](O)[C@H](C)O2)Oc2ccc(cc2Cl)[C@H]1O` [VANCOMYCIN], the log10CFU/ml worked out at 0.82.

The values are drawn from ChEMBL document CHEMBL1150799, “Vancomycin in vitro bactericidal activity and its relationship to efficacy in clearance of methicillin-resistant Staphylococcus aureus bacteremia” (2007).
